Data on eight compounds can be found in patent publication US7211422B2, “Polypeptide having α-isomaltosylglucosaccharide synthase activity” (Kabushiki Kaisha Hayashibara Seibutsu Kagaku Kenkyujo, priority 2001, dated 2007).

For experiment [1], the system named is polypeptide having α-isomaltosylglucosaccharide-forming enzyme activity. The experiment can be described thus: Action on saccharides, summary in words for the polypeptide in general. The experiment is classed as biochemical. The conditions noted are these: summary of Table 7. On the procedure: (§1) It was tested whether saccharides can be used as substrates for the polypeptide of α-isomaltosylglucosaccharide-forming enzyme of the present invention. For the purpose, a solution of maltose, maltotriose, maltotetraose, maltopentaose, maltohexaose, maltoheptaose, isomaltose, isomaltotriose, panose, isopanose, trehalose, kojibiose, nigerose, neotrehalose, cellobiose, gentibiose, maltitol, maltotriitol, lactose, sucrose, erlose, selaginose, maltosyl glucoside, or isomaltosyl glucoside was prepared.
(§2) To each of the above solutions was added two units/g substrate of a purified polypeptide specimen of α-isomaltosylglucosaccharide-forming enzyme from either Bacillus globisporus C11 obtained by the method in Experiment 1-3, Bacillus globisporus N75 obtained by the method in Experiment 2-3, or Arthrobacter globiformis A19 obtained by the method in Experiment 3-3, and the resulting each solution was adjusted to give a substrate concentration of 2% (w/v) and incubated at 30° C. and pH 6.0, except for using pH 8.4 for the enzyme from Arthrobacter globiformis A19, for 24 hours. In order to analyze the saccharides in the reaction mixture before and after the enzymatic reaction, silica gel thin-layer chromatography (hereinafter, abbreviated as “TLC”) was carried out. After two-times development using, as a developer, a mixture solution of n-butanol, pyridine, and water (=6:4:1), and, as a thin-layer plate, “KIESELGEL 60”, an aluminum plate (20×20 cm) for TLC commercialized by Merck & Co., Inc., Rahway, USA, the saccharides in the reaction mixture were examined whether the enzyme acted or not by the coloration of sugars by the sulfuric acid-methanol method.

The subject of experiment [2] is α-isomaltosylglucosaccharide-forming enzyme from Arthrobacter globiformis A19. As to the kind of experiment: Action on saccharides (TLC before and after enzymatic reaction). Also noted: key: −: it showed no change; +: it showed a slight reduction of the color spot of the substrate and the formation of other reaction product; ++: it showed a high reduction of the color spot of the substrate and the formationof other reaction product; +++: it showed a substantial disappearance of the substrate spot and the formation of other reaction product. In kind it is biochemical. The conditions noted are these: two units/g substrate, substrate 2% (w/v), 30° C., pH 8.4, 24 hours. On the procedure:
as §1, §2

Experiment [3] has as its system α-isomaltosylglucosaccharide-forming enzyme from Bacillus globisporus C11. Described as above. To be noted: two units/g substrate, substrate 2% (w/v), 30° C., pH 6.0, 24 hours. In kind it is biochemical. Also noted: key: −: it showed no change; +: it showed a slight reduction of the color spot of the substrate and the formation of other reaction product; ++: it showed a high reduction of the color spot of the substrate and the formationof other reaction product; +++: it showed a substantial disappearance of the substrate spot and the formation of other reaction product. On the procedure:
as §1, §2

For experiment [4], the system named is α-isomaltosylglucosaccharide-forming enzyme from Bacillus globisporus N75. Described as above. The conditions noted are these: two units/g substrate, substrate 2% (w/v), 30° C., pH 6.0, 24 hours. Also noted: key: −: it showed no change; +: it showed a slight reduction of the color spot of the substrate and the formation of other reaction product; ++: it showed a high reduction of the color spot of the substrate and the formationof other reaction product; +++: it showed a substantial disappearance of the substrate spot and the formation of other reaction product. The experiment is classed as biochemical. On the procedure: as §1, §2

The subject of experiment [5] is polypeptide having α-isomaltosylglucosaccharide-forming enzyme activity, obtained in Experiment 1-3. The experiment can be described thus: Reaction product from maltooligosaccharide (sugar composition by HPLC). The experiment is classed as biochemical, Bacillus globisporus C11. Also noted: unit not given here. To be noted: 1% (w/v) substrate, 35° C., pH 6.0, 8 hours; for Sugar composition of reaction mixture, substrate Maltopentaose: 0.1 unit/g-solid; for Sugar composition of reaction mixture, substrate Maltotetraose: 0.2 unit/g-solid; for Sugar composition of reaction mixture, substrate Maltotriose / Sugar composition of reaction mixture, substrate Mlatose: two units/g-solid. On the procedure: To an aqueous solution containing one percent (w/v) of maltose, maltotriose, maltotetraose, or maltopentaose as a substrate was added the polypeptide having α-isomaltosylglucosaccgaride-forming enzyme activity, obtained in Experiment 1-3, in an amount of two units/g-solid for maltose and maltotriose, 0.2 unit/g-solid for maltotetraose, and 0.1 unit/g-solid for maltopentaose, followed by incubation at 35° C. and pH 6.0 for 8 hours. After stopping the enzymatic reaction by a 10-minutes incubation, sugar compositions in the reaction mixture were measured by HPLC using “YMC Pack ODS-AQ303”, a column commercialized by YMC Co., Ltd., Tokyo, Japan, at a column temperature of 40° C. and a flow rate of 0.5 ml/minutes of water, and using as a detector “RI-8012”, a differential refractometer commercialized by Tosoh Corporation, Tokyo, Japan.

For `OC[C@H]1O[C@H](O[C@H]2[C@H](O)[C@@H](CO)OC(O)[C@@H]2O)[C@H](O)[C@@H](O)[C@@H]1O` (some centres unmarked) [Nigerose, nigerose], the “Action of the polypeptide on the saccharide (in words)” value (from here on “Action of the polypeptide”) in experiment [1] is reported as “slightly acted”. Besides, in experiment [2], the “Enzyme action, A19 enzyme” value is on record as “+”. Moreover, the “Enzyme action, C11 enzyme” value in experiment [3] is reported as “+”. Besides, in experiment [4], the “Enzyme action, N75 enzyme” value is listed as “+”.
As for `OC[C@H]1O[C@H](O[C@H]2C(O)O[C@H](CO)[C@@H](O)[C@@H]2O)[C@H](O)[C@@H](O)[C@@H]1O` (some centres unmarked) [Kojibiose, kojibiose], the “Action of the polypeptide” value in experiment [1] is “slightly acted”. Besides, the “Enzyme action, A19 enzyme” value in experiment [2] is recorded as “+”. The “Enzyme action, C11 enzyme” value in experiment [3] was “+”. Also, the “Enzyme action, N75 enzyme” value in experiment [4] is given as “+”.
As to `OC[C@@H](O)[C@@H](O[C@H]1O[C@H](CO)[C@@H](O[C@H]2O[C@H](CO)[C@@H](O)[C@H](O)[C@H]2O)[C@H](O)[C@H]1O)[C@H](O)[C@@H](O)CO` [Maltotriitol, maltotriitol], the “Action of the polypeptide” value in experiment [1] is recorded as “slightly acted”. Besides, the “Enzyme action, A19 enzyme” value in experiment [2] is “+”. For the same compound, the “Enzyme action, C11 enzyme” value in experiment [3] is on record as “+”. Besides, the “Enzyme action, N75 enzyme” value in experiment [4] is listed as “+”.
As for `OC[C@H]1O[C@@](CO)(O[C@H]2O[C@H](CO)[C@@H](O[C@H]3O[C@H](CO)[C@@H](O)[C@H](O)[C@H]3O)[C@H](O)[C@H]2O)[C@@H](O)[C@@H]1O` [Erlose, erlose], the “Action of the polypeptide” value in experiment [1] was “slightly acted”. Besides, the “Enzyme action, A19 enzyme” value in experiment [2] is “+”. For the same compound, the “Enzyme action, C11 enzyme” value in experiment [3] was “+”. Further, the “Enzyme action, N75 enzyme” value in experiment [4] is listed as “+”.
As to `OC[C@H]1O[C@@H](O[C@H]2O[C@H](CO)[C@@H](O)[C@H](O)[C@H]2O)[C@H](O)[C@@H](O)[C@@H]1O` [Neotrehalose, neotrehalose], the “Action of the polypeptide” value in experiment [1] is given as “slightly acted”. Also, the “Enzyme action, A19 enzyme” value in experiment [2] is on record as “+”. Also, the “Enzyme action, C11 enzyme” value in experiment [3] is recorded as “+”. The “Enzyme action, N75 enzyme” value in experiment [4] was “+”.
Take `OC[C@H]1O[C@H](O[C@H]2[C@H](O)[C@@H](O)[C@@H](O[C@H]3[C@H](O)[C@@H](O)[C@@H](O[C@H]4[C@H](O)[C@@H](O)C(O)O[C@@H]4CO)O[C@@H]3CO)O[C@@H]2CO)[C@H](O)[C@@H](O)[C@@H]1O` (some centres unmarked) [Maltotetraose, maltotetraose]: in experiment [5], the “Sugar composition of reaction mixture, substrate Maltopentaose” value (“Sugar composition … substrate Maltopentaose” below) turned out to be 19.2; the “Sugar composition of reaction mixture, substrate Maltotetraose” value (“Sugar composition … substrate Maltotetraose” for short) worked out at 35.1; the “Sugar composition of reaction mixture, substrate Maltotriose” value (from here on “Sugar composition … substrate Maltotriose”) is recorded as 1.8; the “Sugar composition of reaction mixture, substrate Mlatose” value (“Sugar composition … substrate Mlatose” below) is listed as 0.0. Moreover, the “Enzyme action, A19 enzyme” value in experiment [2] is “+++”. Further, in experiment [3], the “Enzyme action, C11 enzyme” value is recorded as “+++”. Moreover, the “Enzyme action, N75 enzyme” value in experiment [4] is listed as “+++”.
Take `OC[C@H]1O[C@H](OC[C@H]2O[C@H](O[C@H]3[C@H](O)[C@@H](O)C(O)O[C@@H]3CO)[C@H](O)[C@@H](O)[C@@H]2O)[C@H](O)[C@@H](O)[C@@H]1O` (some centres unmarked) [Panose, panose]: in experiment [5], the “Sugar composition … substrate Maltopentaose” value amounted to 0.0; the “Sugar composition … substrate Maltotetraose” value stood at 0.0; the “Sugar composition … substrate Maltotriose” value turned out to be 1.2; the “Sugar composition … substrate Mlatose” value is 8.2. The “Enzyme action, A19 enzyme” value in experiment [2] is listed as “−”. In addition, in experiment [3], the “Enzyme action, C11 enzyme” value was “−”. Besides, in experiment [4], the “Enzyme action, N75 enzyme” value was “−”.
Turning to maltotriose, in experiment [5], the “Sugar composition … substrate Maltopentaose” value is 1.9; the “Sugar composition … substrate Maltotetraose” value was 22.7; the “Sugar composition … substrate Maltotriose” value is on record as 45.3; the “Sugar composition … substrate Mlatose” value is listed as 0.8. Moreover, the “Enzyme action, A19 enzyme” value in experiment [2] was “++”. The “Enzyme action, C11 enzyme” value in experiment [3] is recorded as “++”. For the same compound, in experiment [4], the “Enzyme action, N75 enzyme” value is reported as “++”.
